In patent US9708308B2, “Factor IXa inhibitors” (Merck Sharp & Dohme Corp., priority 2012, dated 2017):

Target: Factor IXa (Homo sapiens, UniProt P00740)
Assay: Determination of inhibitory activity against Factor IXa (cleavage of fluorescent peptide substrate)
Format: biochemical
Settings: cleavage of fluorescent peptide CH3SO2-D-CHG-Gly-Arg-AFC, release of AFC; read-out: FIXa IC50
Source text: • (R)—N-(3-aminobenzo[d]isoxazol-6-yl)-2-hydroxy-2-((R)-4-(1-(6-methoxypyridazin-4-yl)-1H-pyrazol-3-yl)-6,6-dimethyl-3-oxomorpholin-2-yl)acetamide. Determination of Inhibitory Activity Against Factor IXa
Formation of a clot to stem bleeding at a site of blood vessel injury involves the coordinated activity of a group of plasma proteins that initiate and propagate fibrin formation and subsequently protect fibrin from premature degradation. Factor IX is a key component of the plasma system that forms a fibrin clot at a site of vascular injury. The activity of Factor IXa is measured by monitoring the cleavage of the fluorescent peptide, CH3SO2-D-CHG-Gly-Arg-AFC.AcOH (“CHG” is cyclohexyl-glycine and “AFC” is trifluoro aminomethyl coumarin). Factor IXa cleaves the amide bond between Arg and AFC, thereby releasing the AFC fluorophore. The free AFC can be detected with a fluorescence detector at an excitation wavelength of 405 nm and emission wavelength of 510 nm.

Factor IXa, sequence (P00740 227-461 limits assumed): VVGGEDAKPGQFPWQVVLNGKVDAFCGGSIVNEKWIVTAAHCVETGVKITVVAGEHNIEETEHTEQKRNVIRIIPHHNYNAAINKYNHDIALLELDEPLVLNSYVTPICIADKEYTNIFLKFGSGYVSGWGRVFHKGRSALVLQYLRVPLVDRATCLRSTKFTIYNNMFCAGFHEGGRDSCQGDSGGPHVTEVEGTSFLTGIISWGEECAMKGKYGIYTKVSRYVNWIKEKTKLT
Factor IXa, sequence (P00740 47-191 partner limits assumed): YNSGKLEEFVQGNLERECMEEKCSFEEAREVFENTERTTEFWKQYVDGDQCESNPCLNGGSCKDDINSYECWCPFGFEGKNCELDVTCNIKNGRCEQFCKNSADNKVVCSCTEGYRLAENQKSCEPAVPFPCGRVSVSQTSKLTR

First: COc1nccc(-n2cc(F)c(N3CCO[C@H]([C@@](C)(O)C(=O)Nc4ccc5c(N)noc5c4)C3=O)n2)n1 [Example 58, (R)—N-(3-aminobenzo[d]isoxazol-6-yl)-2-((R)-4-(4-fluoro-1-(2-methoxypyrimidin-4-yl)-1H-pyrazol-3-yl)-3-oxomorpholin-2-yl)-2-hydroxypropanamide]
Second: COc1nccc(-c2ccc(N3CCO[C@H]([C@@](C)(O)C(=O)Nc4ccc5c(N)noc5c4)C3=O)o2)n1 [Example 64, (R)—N-(3-aminobenzo[d]isoxazol-6-yl)-2-hydroxy-2-((R)-4-(5-(2-methoxypyrimidin-4-yl)furan-2-yl)-3-oxomorpholin-2-yl)propanamide]
The IC50 of the first is 3.9-fold lower: 32 nM for the first, 124 nM for the second.

First: Cc1cc(N2CCO[C@H]([C@@](C)(O)C(=O)Nc3ccc4c(N)noc4c3)C2=O)nn1-c1ccnc(C(F)(F)F)n1 [Example 59, (R)—N-(3-aminobenzo[d]isoxazol-6-yl)-2-hydroxy-2-((R)-4-(5-methyl-1-(2-(trifluoromethyl)pyrimidin-4-yl)-1H-pyrazol-3-yl)-3-oxomorpholin-2-yl)propanamide]
Second: C[C@](O)(C(=O)Nc1ccc2c(N)noc2c1)[C@H]1OCCN(c2ccc3cc(C(F)(F)F)ccc3n2)C1=O [Example 68, (R)—N-(3-aminobenzo[d]isoxazol-6-yl)-2-hydroxy-2-((R)-3-oxo-4-(6-(trifluoromethyl)quinolin-2-yl)morpholin-2-yl)propanamide]
The IC50 of the first is 7.9-fold lower: 72.8 nM for the first, 574 nM for the second.

`C[C@](O)(C(=O)Nc1ccc2c(N)noc2c1)[C@H]1OCCN(c2ccc(-c3ccnc(C#N)c3)o2)C1=O` [Example 61, (R)—N-(3-aminobenzo[d]isoxazol-6-yl)-2-((R)-4-(5-(2-cyanopyridin-4-yl)furan-2-yl)-3-oxomorpholin-2-yl)-2-hydroxypropanamide] and `COc1cc(-c2ccc(N3CCO[C@H]([C@@](C)(O)C(=O)Nc4ccc5c(N)noc5c4)C3=O)o2)ccn1` [Example 63, (R)—N-(3-aminobenzo[d]isoxazol-6-yl)-2-hydroxy-2-((R)-4-(5-(2-methoxypyridin-4-yl)furan-2-yl)-3-oxomorpholin-2-yl)propanamide] are within 1.5-fold of each other in IC50: 93 nM for the first, 131 nM for the second.

Going from `C[C@](O)(C(=O)Nc1ccc2c(N)noc2c1)[C@H]1OCCN(c2ccc(-c3ccnc(C(F)(F)F)c3)o2)C1=O` [Example 62, (R)—N-(3-aminobenzo[d]isoxazol-6-yl)-2-hydroxy-2-((R)-3-oxo-4-(5-(2-(trifluoromethyl)pyridin-4-yl)furan-2-yl)morpholin-2-yl)propanamide] to `C[C@](O)(C(=O)Nc1ccc2c(N)noc2c1)[C@H]1OCCN(c2ccc3ccncc3n2)C1=O` [Example 69, (R)-2-((R)-4-(1,7-naphthyridin-2-yl)-3-oxomorpholin-2-yl)-N-(3-aminobenzo[d]isoxazol-6-yl)-2-hydroxypropanamide], the IC50 rises from 43.5 nM to 384 nM (8.8-fold).

First: CC(C)(O)c1cccc(N2CCO[C@H]([C@@](C)(O)C(=O)Nc3ccc4c(N)noc4c3)C2=O)n1 [Example 65, (R)—N-(3-aminobenzo[d]isoxazol-6-yl)-2-hydroxy-2-((R)-4-(6-(2-hydroxypropan-2-yl)pyridin-2-yl)-3-oxomorpholin-2-yl)propanamide]
Second: Cc1nn(C)c2nc(N3CCO[C@H]([C@@](C)(O)C(=O)Nc4ccc5c(N)noc5c4)C3=O)ccc12 [Example 70, (R)—N-(3-aminobenzo[d]isoxazol-6-yl)-2-((R)-4-(1,3-dimethyl-1H-pyrazolo[3,4-b]pyridin-6-yl)-3-oxomorpholin-2-yl)-2-hydroxypropanamide]
The IC50 of the first is 2.4-fold higher: 468 nM for the first, 195 nM for the second.

Going from `C[C@](O)(C(=O)Nc1ccc2c(N)noc2c1)[C@H]1OCCN(c2cccc(-c3ccnnc3)n2)C1=O` [Example 67, (R)—N-(3-aminobenzo[d]isoxazol-6-yl)-2-hydroxy-2-((R)-3-oxo-4-(6-(pyridazin-4-yl)pyridin-2-yl)morpholin-2-yl)propanamide] to `C[C@](O)(C(=O)Nc1ccc2c(N)noc2c1)[C@H]1OCCN(c2cc3n(n2)CCC3)C1=O` [Example 71, (R)—N-(3-aminobenzo[d]isoxazol-6-yl)-2-((R)-4-(5,6-dihydro-4H-pyrrolo[1,2-b]pyrazol-2-yl)-3-oxomorpholin-2-yl)-2-hydroxypropanamide], the IC50 rises from 66.9 nM to 368 nM (5.5-fold). The first is the more potent here.

Compared with `C[C@]1([C@@H](O)C(=O)Nc2ccc3c(N)noc3c2)OCCN(c2cccc(C(F)(F)F)n2)C1=O` [Example 72, (R)—N-(3-Aminobenzo[d]isoxazol-6-yl)-2-hydroxy-2-((R)-2-methyl-3-oxo-4-(6-(trifluoromethyl)pyridin-2-yl)morpholin-2-yl)acetamide], `CC[C@]1([C@@H](O)C(=O)Nc2ccc3c(N)noc3c2)OCCN(c2cccc(C(F)(F)F)n2)C1=O` [Example 74, (R)—N-(3-Aminobenzo[d]isoxazol-6-yl)-2-((R)-2-ethyl-3-oxo-4-(6-(trifluoromethyl)pyridin-2-yl)morpholin-2-yl)-2-hydroxyacetamide] is 32-fold higher in IC50: 12.9 nM for the first, 408 nM for the second.

First: C[C@]1([C@@H](O)C(=O)Nc2ccc3c(N)noc3c2)OCCN(c2ccn(-c3ccnc(C#N)c3)n2)C1=O [Example 73, (R)—N-(3-Aminobenzo[d]isoxazol-6-yl)-2-((R)-4-(1-(2-cyanopyridin-4-yl)-1H-pyrazol-3-yl)-2-methyl-3-oxomorpholin-2-yl)-2-hydroxyacetamide]
Second: C[C@]1([C@@H](O)C(=O)Nc2ccc3c(N)noc3c2)OCCN(c2ccn(-c3ccc(C#N)cc3)n2)C1=O [Example 80, (R)—N-(3-aminobenzo[d]isoxazol-6-yl)-2-((R)-4-(1-(4-cyanophenyl)-1H-pyrazol-3-yl)-2-methyl-3-oxomorpholin-2-yl)-2-hydroxyacetamide]
The IC50 of the first is 2.6-fold higher: 66.1 nM for the first, 25.3 nM for the second.

Going from `C[C@]1([C@@H](O)C(=O)Nc2ccc3c(N)noc3c2)OCCN(c2ccn(-c3ccc(=O)n(C(F)F)c3)n2)C1=O` [Example 76, (R)—N-(3-Aminobenzo[d]isoxazol-6-yl)-2-((R)-4-(1-(1-(difluoromethyl)-6-oxo-1,6-dihydropyridin-3-yl)-1H-pyrazol-3-yl)-2-methyl-3-oxomorpholin-2-yl)-2-hydroxyacetamide] to `Cc1cc(N2CCO[C@](C)([C@@H](O)C(=O)Nc3ccc4c(N)noc4c3)C2=O)nn1-c1ccc(=O)n(C(F)F)c1` [Example 77, (R)—N-(3-Aminobenzo[d]isoxazol-6-yl)-2-((R)-4-(1-(1-(difluoromethyl)-6-oxo-1,6-dihydropyridin-3-yl)-5-methyl-1H-pyrazol-3-yl)-2-methyl-3-oxomorpholin-2-yl)-2-hydroxyacetamide], the IC50 rises from 11.1 nM to 26.5 nM (2.4-fold). The first is the more potent here.

First: C[C@]1([C@@H](O)C(=O)Nc2ccc3c(N)noc3c2)OCCN(c2nn(-c3ccc(=O)n(C(F)F)c3)cc2F)C1=O [Example 78, (R)—N-(3-Aminobenzo[d]isoxazol-6-yl)-2-((R)-4-(1-(1-(difluoromethyl)-6-oxo-1,6-dihydropyridin-3-yl)-4-fluoro-1H-pyrazol-3-yl)-2-methyl-3-oxomorpholin-2-yl)-2-hydroxyacetamide]
Second: C[C@]1([C@@H](O)C(=O)Nc2ccc3c(N)noc3c2)OCCN(c2ccn(-c3ccc(F)cc3)n2)C1=O [Example 79, (R)—N-(3-aminobenzo[d]isoxazol-6-yl)-2-((R)-4-(1-(4-fluorophenyl)-1H-pyrazol-3-yl)-2-methyl-3-oxomorpholin-2-yl)-2-hydroxyacetamide]
The IC50 of the first is 6.6-fold lower: 25.6 nM for the first, 170 nM for the second. The first is the more potent here.

Going from `COC(=O)c1ccc(-n2ccc(N3CCO[C@](C)([C@@H](O)C(=O)Nc4ccc5c(N)noc5c4)C3=O)n2)cc1` [Example 81, methyl 4-(3-((R)-2-((R)-2-((3-aminobenzo[d]isoxazol-6-yl)amino)-1-hydroxy-2-oxoethyl)-2-methyl-3-oxomorpholino)-1H-pyrazol-1-yl)benzoate] to `C[C@]1([C@@H](O)C(=O)Nc2ccc3c(N)noc3c2)OCCN(c2ccn(-c3ccc(C(=O)O)cc3)n2)C1=O` [Example 82, 4-(3-((R)-2-((R)-2-((3-aminobenzo[d]isoxazol-6-yl)amino)-1-hydroxy-2-oxoethyl)-2-methyl-3-oxomorpholino)-1H-pyrazol-1-yl)benzoic acid], the IC50 falls from 418 nM to 32.8 nM (13-fold). The second is the more potent here.

First: C[C@]1([C@@H](O)C(=O)Nc2ccc3c(N)noc3c2)OCCN(c2ccn(-c3ccc(Cl)cc3)n2)C1=O [Example 83, (R)—N-(3-aminobenzo[d]isoxazol-6-yl)-2-((R)-4-(1-(4-chlorophenyl)-1H-pyrazol-3-yl)-2-methyl-3-oxomorpholin-2-yl)-2-hydroxyacetamide]
Second: C[C@]1([C@@H](O)C(=O)Nc2ccc3c(N)noc3c2)OCCN(c2ccn(-c3ccc(S(C)(=O)=O)cc3)n2)C1=O [Example 84, (R)—N-(3-aminobenzo[d]isoxazol-6-yl)-2-hydroxy-2-((R)-2-methyl-4-(1-(4-(methylsulfonyl)phenyl)-1H-pyrazol-3-yl)-3-oxomorpholin-2-yl)acetamide]
The IC50 of the first is 27-fold higher: 352 nM for the first, 13.2 nM for the second. The second is the more potent here.

`C[C@]1([C@@H](O)C(=O)Nc2ccc3c(N)noc3c2)OCCN(c2ccn(-c3cccnc3)n2)C1=O` [Example 85, (R)—N-(3-aminobenzo[d]isoxazol-6-yl)-2-hydroxy-2-((R)-2-methyl-3-oxo-4-(1-(pyridin-3-yl)-1H-pyrazol-3-yl)morpholin-2-yl)acetamide] and `C[C@]1([C@@H](O)C(=O)Nc2ccc3c(N)noc3c2)OCCN(c2ccn(-c3ccc(C(F)(F)F)nc3)n2)C1=O` [Example 86, (R)—N-(3-aminobenzo[d]isoxazol-6-yl)-2-hydroxy-2-((R)-2-methyl-3-oxo-4-(1-(6-(trifluoromethyl)pyridin-3-yl)-1H-pyrazol-3-yl)morpholin-2-yl)acetamide] are within 1.5-fold of each other in IC50: 279 nM for the first, 414 nM for the second.
